“Also recorded” adds a separate entry of the source.
Legend:
THP-1 cells [1] = experiment: Phagocytosis assay in THP-1 cells with phosphatidylserine lipid microparticles; type: cell-based; details: for inhibition of phagocytosis (RFU): phosphatidylserine lipid microparticles, peptides at 100 μg/mL, 3 h under serum starvation, vs untreated control
From the text: FIG. 2A, FIG. 2B, and FIG. 2C show an image of the THP-1 experimental workflow, an image of THP-1 cells undergoing phagocytosis, and a graph showing data from the phagocytosis experiment. FIG. 2A is an image of the experimental workflow. FIG. 2B is a graph showing data from the peptides derived from the CDR3 regions of antibodies tested in the phagocytosis assay. In FIG. 2B, along the x-axis, “156-1G” refers to SEQ ID NO: 7, “156-IH” refers to SEQ ID NO: 11, “156-2B” refers to SEQ ID NO: 3, and “156-2F” refers to SEQ ID NO: 15. In this assay, cells were treated with the indicated treatments, and cytochalasin D (20 μM) was used as a control to show phagocytosis failure. CDR3 regions from antibodies that bound to Tim-4 were synthesized as peptides, and subsequently tested. The data shown in FIG. 2B represents peptides tested at 100 μg/mL. Statistics were performed using a one-way ANOVA followed by a multiple comparison test comparing each treatment to “untreated” control (p>0.05=*, ns=not significant). […] Phosphatidylserine (“PS”) lipid microparticles are shown and superimposed onto brightfield images of THP-1 cells. […] Scale bar represents 150 μm.
Phagocytosis assays using the developed peptides derived from the CDR3 regions of antibodies (e.g., SEQ ID NO: 35, SEQ ID NO: 36, SEQ ID NO: 37, and SEQ ID NO: 38) and THP-1 cells were completed by following the experimental outline shown in FIG. 2A. In these experiments, 1×10^5 cells were seeded on a 96 well plate, and the synthesized peptides (e.g., SEQ ID NO: 35, SEQ ID NO: 36, SEQ ID NO: 37, and SEQ ID NO: 38) were then added onto the plate for three hours under serum starvation. Phosphatidylserine lipid microparticles were then added in media containing 10% FBS. Cells were then washed 3 to 5 times with PBS, and the level of fluorescence (e.g., relative fluorescence units, “RFU”) was then analyzed with a plate reader. In these experiments, cytochalasin D (20 μM) was used as a control to show phagocytosis failure. […]

THP-1 cells [2] = experiment: Phagocytosis assay in THP-1 cells with carboxylate beads; type: cell-based; details: 96 well plate, vs untreated control
Method: FIG. 3A and FIG. 3B are graphs showing dose response curves of the phagocytosis assay in THP-1 cells using both PS beads and carboxylate beads.
In FIG. 8A, cells were plated on a 96 well plate and treatments were performed with carboxylate beads. Statistics were performed using a one-way ANOVA followed by a multiple comparison test comparing each treatment to the “untreated” control (p>0.05=*, p>0.01=**, p>0.001=***, p>0.0001=****). FIG. 8B are representative images of the phagocytosis assay. […] Scale bare represents 150 μm. […] Scale bar represents 150 μm. FIG. 8D is a graph of a dose response curve.
(§1) To further validate the function of the synthesized peptide, SEQ ID NO: 17, a phagocytosis assay using SEQ ID NO: 17 in THP-1 cells (FIG. 8A, FIG. 8B, FIG. 8C, and FIG. 8D), and in RAW 264.7 cells (FIG. 9A and FIG. 9B), was performed. […] A dose response curve for SEQ ID NO: 17 in THP-1 cells was generated (FIG. 8D). […] A dose response curve for SEQ ID NO: 17 in RAW 264.7 cells was generated (FIG. 9B).

Tim4-Hek293-FT cells = experiment: Phagocytosis assay in Tim4-Hek293-FT cell line; type: cell-based; details: for inhibition of phagocytosis (RFU): Tim4-Hek293-FT cells, 96 well plate, vs untreated control
Method: Stable Tim-4 expression was confirmed by RT-PCR using primers against Tim-4 mRNA and Gapdh mRNA (control). […] Scale bar represents 300 μm.
In FIG. 5A, the Tim4-Hek293-FT cells were plated in a 96 well plate, followed by the phagocytosis assay. Statistical analysis was performed using a t-test (p>0.05=*). Relative fluorescence units (“RFU”) were normalized to fluorescent intensity at hour zero. In FIG. 5B, Tim4-Hek293-FT cells were fixed and immunolabeled against Tim-4 and counterstained with DAPI. […] Arrows indicate phosphatidylserine bead. Scale bar represents 75 μm.
In FIG. 7A, cells were plated on a 96 well plate and treatments were performed similar to FIG. 2A. Statistics were performed using a one-way ANOVA followed by a multiple comparison test comparing each treatment to the “untreated” control (p>0.05=*, p>0.01=**, p>0.001=***). […] In FIG. 7A, “116-117 1A” is SEQ ID NO: 30 ([…]), “116-117 2C” is SEQ ID NO: 23 ([…]), “116-117 2D” is SEQ ID NO: 24 ([…]), “116-117 2F” is SEQ ID NO: 25 ([…]), “116-117 3B” is SEQ ID NO: 26 ([…]), “116-117 3C” is SEQ ID NO: 27 ([…]), “116-117 3E” is SEQ ID NO: 17 ([…]), “116-117 3F” is SEQ ID NO: 28 ([…]), “116-117 4A” is SEQ ID NO: 22 ([…]), and “116-117 4G” is SEQ ID NO: 29 ([…]). […] Scale bar represents 150 μm.
To further validate the function of the synthesized peptides, a Tim4-Hek293-FT cell line was developed (FIG. 4A).
A phagocytosis assay, as previously described above and following the experimental outline of FIG. 2A, was performed in the Tim4-Hek293-FT cells. In these experiments, cytochalasin D (20 μM) was used as a control to show phagocytosis failure. […] The inhibition of phagocytosis by SEQ ID NO: 17 is also shown in the immunofluorescence images of FIG. 7B.

RAW 264.7 cells = experiment: RAW phagocytosis assay with carboxylate beads; type: cell-based, mouse; details: across a range of doses
Method: In FIG. 9A, cells were plated on a 96 well plate and treatments were performed with carboxylate beads. Statistics were performed using a one-way ANOVA, followed by a multiple comparison test comparing each treatment to the “untreated” control (p>0.05=*, p>0.01=**, p>0.001=***, p>0.0001=****). In FIG. 9B, a dose response curve of a RAW phagocytosis assay was performed using mouse macrophages RAW cells with cytochalasin D as a control, and graphed in log scale.
as §1

THP-1 cells [3] = experiment: Autophagy assay (autophagosome formation) in THP-1 cells; type: cell-based; details: labeled autophagosomes, Hoechst nuclear stain
From the text: In FIG. 11B, autophagosomes are labeled and Hoechst stain is used for nuclear staining.

Tim-4 = molecular target: T1, Tim-4 (Homo sapiens, UniProt Q96H15); experiment: Binding to Tim-4 (identification of binders)
T1 sequence (Q96H15 25-378): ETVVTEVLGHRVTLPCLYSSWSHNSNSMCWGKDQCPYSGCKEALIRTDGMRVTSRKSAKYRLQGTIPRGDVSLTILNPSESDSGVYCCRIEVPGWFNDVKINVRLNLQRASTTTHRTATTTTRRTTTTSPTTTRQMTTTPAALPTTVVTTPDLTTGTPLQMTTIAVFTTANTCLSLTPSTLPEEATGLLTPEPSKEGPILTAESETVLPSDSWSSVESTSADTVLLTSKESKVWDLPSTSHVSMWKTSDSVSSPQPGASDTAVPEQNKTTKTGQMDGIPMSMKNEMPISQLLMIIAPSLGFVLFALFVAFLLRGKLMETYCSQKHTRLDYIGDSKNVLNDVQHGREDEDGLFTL

| Sequence | inhibition of phagocytosis (RFU) (THP-1 cells [1]) | inhibition of phagocytosis with phosphatidylserine lipid microparticles compared to carboxylate beads (dose response curves) (THP-1 cells [1]) | inhibition of phagocytosis (THP-1 cells [2]) | inhibition of phagocytosis (THP-1 cells [2]; listed as 116-117 3E) | phagocytosis of the phosphatidylserine bead (immunofluorescence image) (Tim4-Hek293-FT cells; Tim4-Hek293-FT cells fixed, immunolabeled against Tim-4, DAPI) | inhibition of phagocytosis (RFU) (Tim4-Hek293-FT cells) | inhibition of phagocytosis (RFU) (Tim4-Hek293-FT cells; listed as 116-117 3E) | inhibition of phagocytosis (RAW 264.7 cells) | autophagosome formation (THP-1 cells [3]) | binding to Tim-4 (Tim-4) |
| --- | --- | --- | --- | --- | --- | --- | --- | --- | --- | --- |
| QTLAFAYNDSDWFEVYKG [156-1G] | significantly inhibited phagocytosis |  |  |  |  |  |  |  |  |  |
| QCYANHMYCNDSIAVYHFQM [SEQ ID NO: 17] |  | greater inhibition | inhibited phagocytosis | inhibits phagocytosis | reduced ability of phagocytosis | inhibited phagocytosis | inhibits phagocytosis | inhibited phagocytosis | reduces autophagosome formation | bound to Tim4 |
| KVAVMTMAEANRRGTYSS [SEQ ID NO: 3] | significantly inhibited phagocytosis |  |  |  |  | inhibit phagocytosis; also recorded: limit phagocytosis |  |  |  |  |

Source: US20240368278A1, “GENERATION AND CHARACTERIZATION OF NOVEL TIM-4 BINDING AGENTS” (Heat Biologics, Inc., priority 2021, published 2024)
